From patent publication US20210244686A1, “Novel Systems And Methods For The Therapeutic Use of Cannabinoids or Cannabinoid Analogs to Increase The Lipid Order of Cholesterol Containing Cell Membranes” (The Regents of the University of Colorado a body corporate, priority 2018, published 2021)

Legend:
SREBP2 = experiment: Western blot analysis of SREBP2 proteolytic processing; format: cell-based, human; conditions: 24 hr
From the text: To further investigate the role of SREBP/SCAP signaling in the CBD response, the present inventors used western blot analysis to probe whether SREBP2 proteolytic processing is affected by CBD. […] The present inventors performed this assay with cells grown in LDL containing FBS (elevated cholesterol) and LDL depleted FBS (cholesterol starved). […] However, the inventors also detect evidence that although cholesterol precursors are accumulating in a CBD dependent manner, cholesterol itself appears to experience a net decrease in de novo synthesis. This is evident in the overall decrease in newly synthesized ^13C labeled cholesterol in CBD treated cells (FIG. 3B) and implies an apparent blockage in the final step of cholesterol biosynthesis, which is catalyzed by either DHCR24 or DHCR7 in the ER.
Cells were harvested at 24 hours by trypsinization and counted using a hemocytometer to determine cell concentration. 4×10^6 cells from each sample were lysed using 200 μL SDS lysis buffer (20 mM Tris pH 6.8, 4% SDS, 0.5% beta mercaptoethanol) and lysates were boiled for 5 minutes 95° C. and subsequently sonicated at 40% power 10 cycles 10 seconds on/off. 10 μL of lysate was loaded into each lane of a 12% SDS PAGE gel. Immunoblotting of protein transferred to nitrocellulose membrane was performed using anti-SREBP2 (Cayman Chemical #10007663).

SK-N-BE(2) cells = experiment: Subcellular fractionation and LC-MS of CBD distribution; format: cell-based, human; conditions: 24 hrs
Protocol: In a metabolomics survey of SK-N-BE(2) cells exposed to CBD, the present inventors were able to determine that CBD is concentrated in insoluble components […]. As a result, the inventors designed and executed a subcellular fractionation method to isolate nuclear membrane, plasma membrane, and ER membrane fractions.
Extraction of cholesterol, precursors, free fatty acids, cholesteryl esters, and phospho lipids were performed in the following manner. SK-N-BE(2) cells in 10 cm dishes were washed with 10 mL PBS twice and then cells were scraped and pelleted at 400 rcf for 2 minutes. […]
Analytes were resolved over an ACQUITY HSS T3 column (2.1×150 mm, 1.8 μm particle size (Waters, Mass., USA) using an aqueous phase (A) of 25% acetonitrile and 5 mM ammonium acetate and a mobile phase (B) of 90% isopropanol, 10% acetonitrile and 5 mM ammonium acetate. The column was equilibrated at 30% B, and upon injection of […] of extract, samples were eluted from the column using the solvent gradient: 0-9 min 30-100% B and 0.325 mL/min; hold at 100% B for 3 min at 0.3 mL/min, and then decrease to 30% over 0.5 min at 0.4 ml/min, followed by a re-equilibration hold at 30% B for 2.5 minutes at 0.4 ml/min. […] Samples were analyzed in randomized order with a technical mixture injected incrementally to qualify instrument performance. […]

## C=C(C)[C@@H]1CCC(C)=C[C@H]1c1c(O)cc(CCCCC)cc1O [CBD, cannabidiol]
SREBP2; U18666A 10 μM, Atorvastatin 10 μM
  magnitude of SREBP2 cleavage activation versus U18666A or Atorvastatin: lower in magnitude
SREBP2; both cholesterol starved and elevated cholesterol conditions
  SREBP2 cleavage: dose dependent activation
SK-N-BE(2) cells
  CBD incorporated into ER and nuclear membranes: detectable amount
